According to patent US12291508B2, “Hydrazide containing nuclear transport modulators and uses thereof” (Karyopharm Therapeutics Inc., priority 2011, dated 2025):
Counter-ions that a name gives are not always drawn. Like-named read-outs stand apart in the source and are kept apart here.

How the values were obtained:
[1] = system: MDA-MB-468 TNBC Basal A cells; experiment: Nuclear localization of FOXO3a and IκB, MDA-MB-468; assay type: cell-based; conditions: MDA-MB-468, 1 μM, 24 hours
Procedure: MDA-MB-468 TNBC Basal A and BT-20 TNBC Basal B cells were exposed to DMSO or 1 μM Compound 1-3 for 24 hours and then stained for FOXO3a or IκB with or without DAPI nuclear stain. The stained cells were examined for nuclear localization.

MDA-MB-231 = experiment: Cell proliferation assay, MDA-MB-231; assay type: cell-based; conditions: Homo sapiens; MDA-MB-231, type BaB, 72 h
Procedure: The cells were seeded at 5×10^3 to 1.5×10^4 cells (depending on cell type) in each well of a 96-well plate in 100 μL of fresh culture medium and adherent cells were allowed to attach overnight. The stock solutions of the compounds were diluted in cell culture medium to obtain eight concentrations of each drug, ranging from 1 nM to 30 μM and DMSO at less than 1% v/v was used as a negative control. The resulting drug solutions were transferred onto the cells. After 72 h of treatment, 20 μl of CellTiter 96® AQueous reagent was added into each well of the 96-well assay plates and the plate was incubated at 37° C. for 1-4 hours in a humidified, 5% CO2 atmosphere. Then the absorbance of each well was recorded at 490 nm using a 96-well plate reader. In most cases, the assay was performed in triplicate and the results were presented as half maximal inhibitory concentration (IC50).

MDA-MB-468 TNBC cells = experiment: Apoptosis marker immunoblot, MDA-MB-468; assay type: cell-based; conditions: MDA-MB-468, 0 to 10 μM, 24 hours
Procedure: MDA-MB-468 TNBC, DU4475 and HS578T TNBC cells were exposed to concentrations of Compound 1-3 ranging from 0 to 10 μM for 24 hours. After 24 hours, whole protein cell extracts were run on immunoblots and were exposed to antibodies against the proteins indicated in FIGS. 2A-2C.

[2] = system: MDA-MB-468 triple negative breast cancer cells; conditions: oral, day 33 post inoculation
Procedure: MDA-MB-468 (ATCC #HTB-132)triple negative breast cancer cells were obtained from ATCC. These cells were grown in Leibovitz's L-15 medium supplemented with 10% fetal calf serum (FCS), 1% penicillin and streptomycin, and 2 mM L-glutamine. Cells were sub-cultured by dilution at a ratio of 1:3. Fifty (50) female SCID mice (Charles River Labs), aged 5 to 6 weeks, with a mean pre-treatment body weight of 19.2 grams were used. SCID mice were inoculated s.c. in the left flank with 5×10^6 MDA-MB-468 cells. When the tumors reached a mean size of between 100 and 200 mm^3, mice were randomly and prospectively divided into a vehicle control group of ten (10) mice and five treatment groups of eight (8) mice per group.
All administrations were via the oral route. Animals were fed with sterile Labdiet® 5053 (pre-sterilized) rodent chow and sterile water was provided ad libitum. Tumors were measured once every two days with micro-calipers, and tumor volume was calculated as (length×width×width)/2. All animals were weighed every day in order to assess differences in weight among treatment groups and monitor wellness of animals. […] Any animals with a tumor over 1500 mm^3 in volume were also euthanized. Survival was recorded daily. […] Statistical differences between treatment groups were determined using Mann-Whitney Rank Sum or ANOVA tests with a critical value of 0.05.

HS578T cells = experiment: Long-term growth assay, HS578T; assay type: cell-based; conditions: 1 μM, 7 days, crystal violet
Excerpt: (§1) At the end of the assay, media was removed from the cells and the remaining cells were stained with crystal violet.

MDA-MB-468 cells = experiment: Long-term growth assay, MDA-MB-468; assay type: cell-based; conditions: MDA-MB-468, 1 μM, 10 days, crystal violet
Excerpt: as §1

[3] = target: T1, CRM1-mediated nuclear export (Homo sapiens, UniProt O14980); experiment: RevGFP assay, inhibition of nuclear export; assay type: cell-based; conditions: U2OS-RevGFP cells, about 1 hr incubation; read-out: Rev Export
T1 construct: endogenous in cells; host or cells: U2OS-RevGFP cells
Procedure: The ability of exemplary compounds of the invention to inhibit CRM1-mediated nuclear export was assessed in a RevGFP assay. Rev is a protein from human immunodeficiency virus type 1 (HIV-1) and contains a nuclear export signal (NES) in its C-terminal domain and a nuclear localization signal (NLS) in its N-terminal domain. Nuclear export of Rev protein is dependent on the classical NES/CRM1 pathway (Neville et al. 1997).
In this assay, U2OS-RevGFP cells were seeded onto clear-bottomed, black, 384-well plates the day before the experiment. Compounds were serially diluted 1:2 in DMEM, starting from 40 μM in a separate, 384-well plate, and then transferred onto the cells. The cells were incubated with compound for about 1 hr before fixation with 3.7% formaldehyde and nuclei staining with Hoechst 33258. The amount of GFP in cell nuclei was measured and the IC50 of each compound was determined (Kau et al. 2003).

[4] = system: PMA-induced male BALB/c psoriatic mice; assay type: in vivo; conditions: 10 mg/kg oral, M-W-F
Procedure: BALB/c mice were housed in individually ventilated cages in a controlled environment (temperature 22±1° C., humidity 70±5%, and 12 h light/12 h dark cycle) in the animal facility. The mice had access to commercially available feed pellets and UV-treated potable water ad libitum. 4 mice were housed per individually ventilated cage. Each animal in the cage was identified by a tail. 8 mice per group mice were randomized into different treatment groups according to body weight. Following randomization the mean body weight for all groups was equivalent. Study design was Group 1: Naïve, 1% DMSO vehicle (10-30 ul, topical once daily), Group 2: PMA, 1% DMSO vehicle (10-30 ul, topical once daily), Group 3: PMA, 1-4 10 mg/kg in PVP/Pluronics (oral, M-W-F; Day 1-Day 3-Day 5-Day 7), Group 4: PMA, 0.1% betamethasone—25 mg (reference standard) (topical once daily)
4 ug Phorbol 12-myristate 13-acetate (PMA) in 20 uL of acetone was applied every day to mouse ears. Starting from Day 2, PMA-induction of dermal inflammation/psoriasis manifested with increases in clinical disease activity index associated with increased thickness of ear, scaling of ear-skin, and folding of ear-skin. The following parameters were evaluated: (i) the thickness of the ear, (ii) scaling on the skin of ear. This will be based on a scoring index—0, no scaling; 1, mild scaling; 2, moderate scaling; 3, severe scaling. […]

T1 sequence (O14980 whole entry): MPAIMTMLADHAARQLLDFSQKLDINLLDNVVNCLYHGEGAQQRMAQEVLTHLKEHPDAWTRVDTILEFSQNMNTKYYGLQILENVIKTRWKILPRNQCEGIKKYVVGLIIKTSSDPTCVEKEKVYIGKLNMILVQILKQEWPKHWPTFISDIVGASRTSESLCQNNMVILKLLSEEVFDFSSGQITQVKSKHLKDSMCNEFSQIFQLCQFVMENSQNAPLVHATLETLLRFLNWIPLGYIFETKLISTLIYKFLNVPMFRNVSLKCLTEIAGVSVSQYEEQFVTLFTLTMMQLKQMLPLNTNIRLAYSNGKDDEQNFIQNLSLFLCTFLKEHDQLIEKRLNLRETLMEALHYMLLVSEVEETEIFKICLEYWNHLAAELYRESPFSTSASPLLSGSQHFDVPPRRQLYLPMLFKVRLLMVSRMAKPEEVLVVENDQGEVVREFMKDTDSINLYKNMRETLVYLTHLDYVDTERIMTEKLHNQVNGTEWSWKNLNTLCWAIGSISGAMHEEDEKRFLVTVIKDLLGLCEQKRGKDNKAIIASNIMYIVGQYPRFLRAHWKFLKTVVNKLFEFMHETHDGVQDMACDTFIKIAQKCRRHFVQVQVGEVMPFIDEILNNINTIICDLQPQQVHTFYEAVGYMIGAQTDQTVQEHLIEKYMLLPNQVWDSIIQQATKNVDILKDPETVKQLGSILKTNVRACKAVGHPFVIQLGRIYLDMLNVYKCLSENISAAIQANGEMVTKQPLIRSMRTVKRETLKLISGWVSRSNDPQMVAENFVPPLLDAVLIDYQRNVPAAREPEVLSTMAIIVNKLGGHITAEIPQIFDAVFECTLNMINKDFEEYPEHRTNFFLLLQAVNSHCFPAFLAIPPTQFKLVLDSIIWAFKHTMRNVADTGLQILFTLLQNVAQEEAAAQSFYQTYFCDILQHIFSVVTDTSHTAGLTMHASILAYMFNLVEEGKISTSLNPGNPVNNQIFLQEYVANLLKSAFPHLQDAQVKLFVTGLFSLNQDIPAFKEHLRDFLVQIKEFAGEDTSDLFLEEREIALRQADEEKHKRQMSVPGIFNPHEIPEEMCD

Question: For `O=C(/C=C\n1cnc(-c2cc(C(F)(F)F)cc(C(F)(F)F)c2)n1)NNc1cnccn1` [Compound I-3, (Z)-3-(3-(3,5-bis(trifluoromethyl)phenyl)-1H-1,2,4-triazol-1-yl)-N′-(pyrazin-2-yl)acrylohydrazide], which “localization of FOXO3a and IκB” value [1] is on record?
Answer: both FOXO3a and IκB were localized in the cell nucleus

Question: And the IC50 (MDA-MB-231)?
Answer: 10 nM

Question: What about the “apoptosis (PARP, caspase 3, cleaved PARP, cleaved caspase 3)” value (MDA-MB-468 TNBC cells) of the same molecule?
Answer: induces apoptosis

Question: And the “inhibition of tumor growth compared with vehicle-treated animals” value ([2]; 5 mg/kg Monday, Wednesday, Friday)?
Answer: approximately 60%

Question: And the “inhibition of tumor growth compared with vehicle-treated animals” value ([2]; 25 mg/kg Monday, Thursday regimen)?
Answer: ~100%

Question: What about the long-term growth (HS578T cells) of the same molecule?
Answer: inhibited the long-term growth

Question: And the long-term growth (MDA-MB-468 cells)?
Answer: inhibited the long-term growth

Question: `O=C(/C=C\n1cnc(-c2cc(C(F)(F)F)cc(C(F)(F)F)c2)n1)NNc1ccccn1` [Compound I-4, (Z)-3-(3-(3,5-bis(trifluoromethyl)phenyl)-1H-1,2,4-triazol-1-yl)-N′-(pyridin-2-yl)acrylohydrazide hydrochloride] was tested. Which IC50 [3] did it give?
Answer: ≤ 1000 nM

Question: What about the “efficacy relative to positive control betamethasone” value [4] of the same molecule?
Answer: comparable to positive control betamethasone

Question: And the mean ear thickness ([4]; compared to vehicle)?
Answer: reduced mean ear thickness in a statistically significant manner
